We go through six compounds from US4241182A, “Fortimicin factors KG1, KG2 and KG3 and processes for production thereof” (Kyowa Hakko Kogyo Co., Ltd., priority 1978, dated 1980).

Molecules are shown by their SMILES. Converted amounts (≈) assume the structure as drawn. Where two headings read alike, the source gives them in different places.

Data set [1] has as its system Gram-positive and Gram-negative bacteria. The experiment in a line: Antibacterial spectrum (summary of Table 3). Type of data set: cell-based. From the text: (§1) Table 3 illustrates the antibacterial spectra of Fortimicin factors KG1, KG2 and KG3 against various microorganisms.
(§2) (Minimum Inhibitory Concentration, μg/ml measured by
(§3) agar dilution method at pH 8.0)

For another data set, the system named is Escherichia coli KY8302. The experiment in a line: Antibacterial spectrum, agar dilution method. Type of data set: cell-based. Conditions: for MIC: Escherichia coli, KY8302, pH 8, Escherichia coli KY8302 (resistant to chloramphenicol, streptomycin, kanamycin, paromomycin, tetracycline and spectinomycin), read-out: Minimum Inhibitory Concentration.
Source text: as §1, §2, §3

Data set [2] relates to Pseudomonas aeruginosa BMH#1. The experiment in a line: Antibacterial spectrum, agar dilution method. Type of data set: cell-based.
Source text: as §1, §2, §3
On the technique in general: In agar dilution, organisms are placed on agar that contains the substance at set levels.

Data set [3] concerns Staphylococcus aureus ATCC 6538P. The experiment in a line: Antibacterial spectrum, agar dilution method. Type of data set: cell-based. To be noted: for MIC: Staphylococcus aureus, ATCC6538P, pH 8, Staphylococcus aureus ATCC 6538P, read-out: Minimum Inhibitory Concentration.
Source text: as §1, §2, §3

Another data set has as its system Escherichia coli KY8327. The experiment in a line: Antibacterial spectrum, agar dilution method. Type of data set: cell-based. Conditions: for MIC: Escherichia coli, KY8327, pH 8, Escherichia coli KY8327 (resistant to kanamycin, gentamicin and tobramycin), read-out: Minimum Inhibitory Concentration.
Source text: as §1, §2, §3

Data set [4] has as its system Proteus vulgaris ATCC 6897. The experiment in a line: Antibacterial spectrum, agar dilution method. Type of data set: cell-based.
Source text: as §1, §2, §3

The next data set has as its system Escherichia coli KY8348. The experiment in a line: Antibacterial spectrum, agar dilution method. Type of data set: cell-based. Conditions: for Minimum Inhibitory Concentration: Escherichia coli KY8348 (resistant to streptomycin and gentamicin), pH 8.0.
Source text: as §1, §2, §3

The test system of another data set is Escherichia coli ATCC 26. The experiment in a line: Antibacterial spectrum, agar dilution method. Type of data set: cell-based.
Source text: as §1, §2, §3

Data set [5] relates to Bacillus subtilis No. 10707. The experiment in a line: Activity of isolated substance (units per mg), paper disc method. Type of data set: cell-based. As to the method:
After the completion of fermentation, the culture liquor is adjusted to pH 2.5 with concentrated sulfuric acid and is stirred for 30 minutes. Thereafter, about 7 kg of a filter aid, Radiolite No. 600 (product of Showa Kagaku Kogyo Co., Ltd., Japan) is added to the culture liquor and the microbial cells are removed by filtration. The filtrate is adjusted to pH 7.5 by the addition of 6 N sodium hydroxide, and then flowed through a column packed with about 20 l of a cation exchange resin, Amberlite IRC-50 (ammonium form). The active principles are adsorbed on the resin, and the effluent is discarded. After the resin is washed with water, elution of the active principles is carried out with 1 N aqueous ammonia. The eluate is subjected to determination of activity by a paper disc method using an agar plate of Bacillus subtilis No. 10707. Fractions showing an activity are combined and concentrated under reduced pressure to about 1 l. The concentrate is adjusted to pH 7 with concentrated hydrochloric acid and then flowed through a column packed with 3 l of Amberlite CG-50 (ammonium form). After the resin is washed with water, elution is carried out with 0.1 N NH4 OH containing 0.1 M NH4 Cl. The eluate is taken in 500 ml fractions. Each fraction is subjected to determination of antibacterial activity against Bacillus subtilis No. 10707 and identification of active component by silica gel thin layer chromatography [Developer: the lower layer of a mixed solvent of chloroform, methanol and concentrated aqueous ammonia (2:1:1 by volume), Coloring agent: ninhydrin]. After the volume of the eluate reaches about 3 l, Fortimicin factors KG1, KG2 and KG3 begin to be eluted. The fractions containing Fortimicin factors KG1, KG2 and KG3 are collected, concentrated under reduced pressure to remove ammonia, neutralized with concentrated hydrochloric acid and flowed through a column packed with 500 ml of Amberlite IRC-50 (ammonium form). After the resin is washed with water, elution is carried out with 0.5 N aqueous ammonia. The active fractions are collected, concentrated under reduced pressure and freeze-dried to obtain 2 g of a white powder. The powder contains in it 250 mg of Fortimicin KG1, 640 mg of Fortimicin KG2 and 330 mg of Fortimicin KG3.
2 g of the crude powder is placed on a silica gel column (Silica gel: produced by Wako Junyaku Co., Ltd., Japan, Diameter of column: about 3 cm). Development is carried out with the lower layer of a mixed solvent of chloroform, methanol and concentrated aqueous ammonia (3:1:1 by volume). The eluate is taken in 20 ml fractions. Each fraction is subjected to the silica gel thin layer chromatography. First, Fortimicin B is eluted and then Fortimicin factors KG2, KG1 and KG3 are eluted in this order. The fractions respectively containing Fortimicin factors KG1, KG2 and KG3 are collected, concentrated under reduced pressure and freeze-dried to obtain 200 mg of Fortimicin KG1, [Activity: 970 u/mg (u: unit)], 500 mg of Fortimicin KG2 (Activity: 970 u/mg) and 250 mg of Fortimicin KG3 (Activity: 950 u/mg) (Activity of each of the purified substances is considered to be 1000 u/mg).

Data set [6] is described as follows: Solubility of the free base. Type of data set: physicochemical. To be noted: for solubility in ethanol and acetone / solubility in methanol / solubility in organic solvents such as chloroform, benzene, ethyl acetate, butyl acetate, ethyl ether, butanol, petroleum ether, n-hexane / solubility in water: free base.
Data set [7] concerns certain strains of Escherichia coli which are resistant to various antibiotics. The experiment in a line: Antibacterial activity against resistant strains (summary of Table 3). Type of data set: cell-based.
Source text: as §1, §2, §3

The nature of data set [8]: Acute toxicity, intravenous administration in mice. Conditions: mouse, in vivo.
The subject of data set [9] is Bacillus subtilis No. 10707. The experiment in a line: Antibacterial spectrum, agar dilution method. To be noted: pH 8.0, read-out: Minimum Inhibitory Concentration. Type of data set: cell-based.
Source text: as §1, §2, §3

The subject of data set [10] is Klebsiella pneumoniae ATCC 10031. The experiment in a line: Antibacterial spectrum, agar dilution method. Type of data set: cell-based. To be noted: ATCC10031, pH 8.0, read-out: Minimum Inhibitory Concentration.
Source text: as §1, §2, §3

Data set [11] deals with Salmonella typhosa ATCC 9992. The experiment in a line: Antibacterial spectrum, agar dilution method. Type of data set: cell-based. Conditions: Salmonella enterica, pH 8, read-out: Minimum Inhibitory Concentration.
Source text: as §1, §2, §3

Data set [12] concerns Shigella sonnei ATCC 9290. The experiment in a line: Antibacterial spectrum, agar dilution method. Type of data set: cell-based. To be noted: ATCC9290, pH 8.0, read-out: Minimum Inhibitory Concentration.
Source text: as §1, §2, §3

Where [13] appears, read: ATCC6897, Proteus vulgaris ATCC 6897, pH 8.0, read-out: Minimum Inhibitory Concentration.
The mark [14] stands for this setting: after silica gel chromatography, pure substance considered 1000 u/mg.
The mark [15] stands for this setting: Pseudomonas aeruginosa BMH#1, pH 8.0, read-out: Minimum Inhibitory Concentration.

The term LD50 denotes the dose expected to kill half of the subjects tested. Low readings indicate a more toxic substance, high ones a less toxic substance.

As to `CNC1C(O)C(OC2OC(C(C)N)=CCC2N)C(N)C(O)C1OC` (stereo not drawn) [Fortimicin KG2], in data set [1], the “antibacterial activity / spectrum (in words)” value is reported as “broad antibacterial spectrum”. For the same compound, the “Minimum Inhibitory Concentration” value in the data set with Escherichia coli KY8302 (Escherichia coli KY8302 (resistant to chloramphenicol, streptomycin, kanamycin, paromomycin, tetracycline and spectinomycin), pH 8.0) turned out to be 41.7 µg/mL; in [3] (Staphylococcus aureus ATCC 6538P, pH 8.0), 10.5 µg/mL; in the data set with Escherichia coli KY8327 (Escherichia coli KY8327 (resistant to kanamycin, gentamicin and tobramycin), pH 8.0) it was 20.9 µg/mL; with Escherichia coli KY8348, 166.6 µg/mL; with Escherichia coli ATCC 26 (Escherichia coli ATCC 26, pH 8.0), 41.7 µg/mL. In addition, the MIC in [2] (Pseudomonas aeruginosa, pH 8, read-out: Minimum Inhibitory Concentration, Pseudomonas aeruginosa BMH#1) was more than 167 µg/mL; in [4] (setting [13]), 83.3 µg/mL (≈ 240 µM). The compound also had an Activity in [5] (setting [14]) of 970 u/mg. Also, in data set [6], the “solubility in ethanol and acetone” value was “slightly soluble”. Further, the solubility in methanol result in data set [6] was “soluble”. The “solubility in organic solvents such as chloroform, benzene, ethyl acetate, butyl acetate, ethyl ether, butanol, petroleum ether, n-hexane” value (from here on “solubility in organic solvents such”) in data set [6] is on record as “insoluble”. For the same compound, the solubility in water result in data set [6] is “readily soluble”. Moreover, the “solubility in the ordinary organic solvents” value in data set [6] is recorded as “poorly soluble”.

For the compound `CNC1C(O)C(OC2OC(C(C)N)=CCC2N)C(N)C(O)C1OC` (stereo not drawn) [sulfate of Fortimicin KG2], the Activity in data set [5] (sulfate, u: unit) is 620 u/mg.

With `COC1C(O)C(N)C(OC2OC(C(C)N)=CCC2N)C(O)C1N(C)C(=O)CN` (stereo not drawn) [Fortimicin KG3], the “effectiveness against resistant Escherichia coli (in words)” value in [7] was “effective against certain strains of Escherichia coli which are resistant to various antibiotics”. Further, in data set [1], the “antibacterial activity / spectrum (in words)” value was “strong antibacterial activity against a broad range of Gram-positive and Gram-negative bacteria”. The LD50 in [8] came out at 225 mg/kg. The MIC is less than 0.045 µg/mL in data set [9]; 0.52 µg/mL (≈ 1.29 µM) in the data set on Escherichia coli KY8302; 5.2 µg/mL (≈ 12.9 µM) in data set [2] (setting [15]); 0.18 µg/mL (≈ 0.446 µM) in data set [10]; 0.18 µg/mL (≈ 0.446 µM) in data set [11]; 0.083 µg/mL (≈ 0.206 µM) in data set [3]. Further, the MIC in the data set with Escherichia coli KY8327 stood at 0.33 µg/mL (≈ 0.818 µM); in data set [4] (setting [13]), 0.66 µg/mL (≈ 1.64 µM); in the data set with Escherichia coli KY8348 (Escherichia coli, KY8348, pH 8, Escherichia coli KY8348 (resistant to streptomycin and gentamicin), read-out: Minimum Inhibitory Concentration), 10.4 µg/mL (≈ 25.8 µM); in data set [12], 0.7 µg/mL (≈ 1.73 µM); in the data set with Escherichia coli ATCC 26 (ATCC26, Escherichia coli ATCC 26, pH 8.0, read-out: Minimum Inhibitory Concentration) it was 0.33 µg/mL (≈ 0.818 µM). Further, the Activity in data set [5] (setting [14]) was determined as 950 u/mg. Further, the “solubility in ethanol and acetone” value in data set [6] is “slightly soluble”. Besides, the solubility in methanol result in [6] is recorded as “soluble”. In [6], the “solubility in organic solvents such” value is on record as “insoluble”. Also, the solubility in water entry in data set [6] is “readily soluble”. Also, the “solubility in the ordinary organic solvents” value in data set [6] is given as “poorly soluble”.

Consider `CNC1C(O)C(OC2OC(C(C)N)=CCC2N)C(N)C(O)C1OC` (stereo not drawn) [sulfate of Fortimicin KG1], for which, in data set [5] (sulfate, u: unit), the Activity worked out at 620 u/mg.

The compound `COC1C(O)C(N)C(OC2OC(C(C)N)=CCC2N)C(O)C1N(C)C(=O)CN` (stereo not drawn) [sulfate of Fortimicin KG3] came in with an Activity in [5] (sulfate, u: unit) of 650 u/mg.

Take `CNC1C(O)C(OC2OC(C(C)N)=CCC2N)C(N)C(O)C1OC` (stereo not drawn) [Fortimicin KG1]: the “antibacterial activity / spectrum (in words)” value in data set [1] is listed as “broad antibacterial spectrum”. The MIC in the data set with Escherichia coli KY8302 was 26.1 µg/mL (≈ 75.3 µM); in [2] (setting [15]), more than 208 µg/mL; in [3], 13.1 µg/mL (≈ 37.8 µM); in the data set with Escherichia coli KY8327, 26.1 µg/mL (≈ 75.3 µM); in [4] (Proteus vulgaris, ATCC6897, pH 8, read-out: Minimum Inhibitory Concentration, Proteus vulgaris ATCC 6897), 26.1 µg/mL (≈ 75.3 µM); in the data set with Escherichia coli ATCC 26 (Escherichia coli, ATCC26, pH 8, read-out: Minimum Inhibitory Concentration, Escherichia coli ATCC 26), 26.1 µg/mL (≈ 75.3 µM). Further, the “Minimum Inhibitory Concentration” value in the data set on Escherichia coli KY8348 turned out to be 26.1 µg/mL. The same compound showed an Activity in data set [5] (setting [14]) of 970 u/mg. Besides, the “solubility in ethanol and acetone” value in data set [6] is listed as “slightly soluble”. In [6], the solubility in methanol result was “soluble”. For the same compound, the “solubility in organic solvents such” value in data set [6] is “insoluble”. Further, the solubility in water entry in data set [6] is “readily soluble”. Also, in data set [6], the “solubility in the ordinary organic solvents” value is reported as “poorly soluble”.
